From ChEMBL document CHEMBL5579832, “Design, synthesis, and biological evaluation of pyrido[2,3-d]pyrimidin-7(8H)-one derivatives as potent USP1 inhibitors” (Eur J Med Chem, 2024)
Activity calls are given as the source filed them. The calls are words filed in the database; no cut-off is given here.

Key:
[1] = target: T1, Ubiquitin carboxyl-terminal hydrolase 1/WD repeat-containing protein 48 (Homo sapiens) (UniProt O94782+Q8TAF3); conditions: NCI-H1299, dose 20-500 nM, time 24.0 hrs
[2] = target: T2, Ubiquitin carboxyl-terminal hydrolase 8 (Homo sapiens) (UniProt P40818); experiment: Inhibition of recombinant human 6His-tagged USP8 using diubiquitin as a substrate at 0 to 10 uM preincubated for 15 mins followed by substrate addition and measured after 2 hrs by SDS-PAGE analysis; conditions: dose 0-10 µM, time 135.0 min
T2 sequence (whole entry): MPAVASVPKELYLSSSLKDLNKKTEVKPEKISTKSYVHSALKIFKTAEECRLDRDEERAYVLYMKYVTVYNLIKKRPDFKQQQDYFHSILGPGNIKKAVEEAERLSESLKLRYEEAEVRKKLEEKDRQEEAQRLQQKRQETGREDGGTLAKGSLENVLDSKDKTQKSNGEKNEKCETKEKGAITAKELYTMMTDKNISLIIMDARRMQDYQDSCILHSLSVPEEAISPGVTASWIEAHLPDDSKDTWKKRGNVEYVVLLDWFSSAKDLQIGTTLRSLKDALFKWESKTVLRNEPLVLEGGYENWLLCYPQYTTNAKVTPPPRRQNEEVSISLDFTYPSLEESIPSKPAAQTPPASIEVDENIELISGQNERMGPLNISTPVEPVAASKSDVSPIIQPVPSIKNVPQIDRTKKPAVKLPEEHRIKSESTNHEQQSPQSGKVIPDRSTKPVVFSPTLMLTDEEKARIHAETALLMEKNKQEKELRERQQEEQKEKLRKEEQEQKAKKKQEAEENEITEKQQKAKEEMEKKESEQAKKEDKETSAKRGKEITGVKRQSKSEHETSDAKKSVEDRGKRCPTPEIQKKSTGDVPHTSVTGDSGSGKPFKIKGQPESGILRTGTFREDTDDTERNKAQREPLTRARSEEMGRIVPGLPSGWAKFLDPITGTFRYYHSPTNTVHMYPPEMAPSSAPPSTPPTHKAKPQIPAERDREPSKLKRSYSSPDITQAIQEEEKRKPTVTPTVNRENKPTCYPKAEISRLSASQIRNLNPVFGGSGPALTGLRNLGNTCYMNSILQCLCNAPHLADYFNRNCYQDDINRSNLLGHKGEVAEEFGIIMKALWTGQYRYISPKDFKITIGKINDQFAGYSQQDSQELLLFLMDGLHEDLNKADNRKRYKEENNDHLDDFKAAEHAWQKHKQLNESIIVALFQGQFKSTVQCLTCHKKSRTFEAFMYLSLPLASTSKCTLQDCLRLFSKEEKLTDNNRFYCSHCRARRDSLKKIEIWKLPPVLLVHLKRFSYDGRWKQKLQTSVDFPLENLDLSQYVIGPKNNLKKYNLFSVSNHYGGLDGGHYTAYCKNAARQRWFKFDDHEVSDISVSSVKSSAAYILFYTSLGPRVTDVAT

[3] = Cmax in male ICR mouse at 10 mg/kg, po administered as single dose and measured after 24 hrs; type: ADME, organism-based; conditions: in vivo
[4] = target: T3, Ubiquitin carboxyl-terminal hydrolase 15 (Homo sapiens) (UniProt Q9Y4E8); experiment: Inhibition of recombinant human 6His-tagged USP15 using diubiquitin as a substrate at 0 to 10 uM preincubated for 15 mins followed by substrate addition and measured after 2 hrs by SDS-PAGE analysis; conditions: dose 0-10 µM, time 135.0 min
T3 sequence (whole entry): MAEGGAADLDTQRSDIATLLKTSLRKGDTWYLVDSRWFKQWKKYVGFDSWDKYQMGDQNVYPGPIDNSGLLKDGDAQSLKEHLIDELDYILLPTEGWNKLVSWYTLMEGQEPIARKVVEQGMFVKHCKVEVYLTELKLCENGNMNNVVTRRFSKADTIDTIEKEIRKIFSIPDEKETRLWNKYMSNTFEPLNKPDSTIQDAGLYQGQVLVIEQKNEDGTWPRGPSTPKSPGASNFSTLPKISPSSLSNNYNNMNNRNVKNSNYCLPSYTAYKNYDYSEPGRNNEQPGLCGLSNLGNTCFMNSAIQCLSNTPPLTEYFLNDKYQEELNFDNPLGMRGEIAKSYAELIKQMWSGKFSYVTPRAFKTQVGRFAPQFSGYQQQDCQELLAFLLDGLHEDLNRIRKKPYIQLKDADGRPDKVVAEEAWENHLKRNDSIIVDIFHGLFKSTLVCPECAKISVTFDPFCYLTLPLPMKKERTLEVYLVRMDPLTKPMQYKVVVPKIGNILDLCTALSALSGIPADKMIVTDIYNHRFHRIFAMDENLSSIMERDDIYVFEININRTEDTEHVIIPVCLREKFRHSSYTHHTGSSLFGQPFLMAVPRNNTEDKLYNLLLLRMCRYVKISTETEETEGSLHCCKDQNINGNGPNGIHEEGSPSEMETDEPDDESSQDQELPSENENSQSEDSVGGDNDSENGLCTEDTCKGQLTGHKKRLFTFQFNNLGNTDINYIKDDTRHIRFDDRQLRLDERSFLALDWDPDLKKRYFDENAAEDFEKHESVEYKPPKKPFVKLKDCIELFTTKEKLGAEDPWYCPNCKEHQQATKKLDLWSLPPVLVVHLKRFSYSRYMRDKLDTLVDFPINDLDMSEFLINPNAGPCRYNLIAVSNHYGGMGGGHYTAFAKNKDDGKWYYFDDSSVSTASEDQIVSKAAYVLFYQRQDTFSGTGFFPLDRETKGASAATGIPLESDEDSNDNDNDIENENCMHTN

[5] = AUC (0 to t) in male ICR mouse at 10 mg/kg, po administered as single dose and measured after 24 hrs; type: ADME, organism-based; conditions: in vivo
[6] = test system: Olaparib-resistant MDA-MB-436; experiment: Inhibition of colony formation in human Olaparib-resistant MDA-MB-436 cell at 100 nM measured after 7 days by SRB staining based assay relative to control; type: functional; conditions: Olaparib-resistant MDA-MB-436, 168 h, time 7 day
[7] = target: Ubiquitin carboxyl-terminal hydrolase 9X (Homo sapiens) (UniProt Q93008); experiment: Inhibition of USP9X (unknown origin) using diubiquitin as a substrate at 0 to 10 uM preincubated for 15 mins followed by substrate addition and measured after 2 hrs by SDS-PAGE analysis; conditions: dose 0-10 µM, time 135.0 min
Sequence of Ubiquitin carboxyl-terminal hydrolase 9X (Homo sapiens) (Q93008 whole entry): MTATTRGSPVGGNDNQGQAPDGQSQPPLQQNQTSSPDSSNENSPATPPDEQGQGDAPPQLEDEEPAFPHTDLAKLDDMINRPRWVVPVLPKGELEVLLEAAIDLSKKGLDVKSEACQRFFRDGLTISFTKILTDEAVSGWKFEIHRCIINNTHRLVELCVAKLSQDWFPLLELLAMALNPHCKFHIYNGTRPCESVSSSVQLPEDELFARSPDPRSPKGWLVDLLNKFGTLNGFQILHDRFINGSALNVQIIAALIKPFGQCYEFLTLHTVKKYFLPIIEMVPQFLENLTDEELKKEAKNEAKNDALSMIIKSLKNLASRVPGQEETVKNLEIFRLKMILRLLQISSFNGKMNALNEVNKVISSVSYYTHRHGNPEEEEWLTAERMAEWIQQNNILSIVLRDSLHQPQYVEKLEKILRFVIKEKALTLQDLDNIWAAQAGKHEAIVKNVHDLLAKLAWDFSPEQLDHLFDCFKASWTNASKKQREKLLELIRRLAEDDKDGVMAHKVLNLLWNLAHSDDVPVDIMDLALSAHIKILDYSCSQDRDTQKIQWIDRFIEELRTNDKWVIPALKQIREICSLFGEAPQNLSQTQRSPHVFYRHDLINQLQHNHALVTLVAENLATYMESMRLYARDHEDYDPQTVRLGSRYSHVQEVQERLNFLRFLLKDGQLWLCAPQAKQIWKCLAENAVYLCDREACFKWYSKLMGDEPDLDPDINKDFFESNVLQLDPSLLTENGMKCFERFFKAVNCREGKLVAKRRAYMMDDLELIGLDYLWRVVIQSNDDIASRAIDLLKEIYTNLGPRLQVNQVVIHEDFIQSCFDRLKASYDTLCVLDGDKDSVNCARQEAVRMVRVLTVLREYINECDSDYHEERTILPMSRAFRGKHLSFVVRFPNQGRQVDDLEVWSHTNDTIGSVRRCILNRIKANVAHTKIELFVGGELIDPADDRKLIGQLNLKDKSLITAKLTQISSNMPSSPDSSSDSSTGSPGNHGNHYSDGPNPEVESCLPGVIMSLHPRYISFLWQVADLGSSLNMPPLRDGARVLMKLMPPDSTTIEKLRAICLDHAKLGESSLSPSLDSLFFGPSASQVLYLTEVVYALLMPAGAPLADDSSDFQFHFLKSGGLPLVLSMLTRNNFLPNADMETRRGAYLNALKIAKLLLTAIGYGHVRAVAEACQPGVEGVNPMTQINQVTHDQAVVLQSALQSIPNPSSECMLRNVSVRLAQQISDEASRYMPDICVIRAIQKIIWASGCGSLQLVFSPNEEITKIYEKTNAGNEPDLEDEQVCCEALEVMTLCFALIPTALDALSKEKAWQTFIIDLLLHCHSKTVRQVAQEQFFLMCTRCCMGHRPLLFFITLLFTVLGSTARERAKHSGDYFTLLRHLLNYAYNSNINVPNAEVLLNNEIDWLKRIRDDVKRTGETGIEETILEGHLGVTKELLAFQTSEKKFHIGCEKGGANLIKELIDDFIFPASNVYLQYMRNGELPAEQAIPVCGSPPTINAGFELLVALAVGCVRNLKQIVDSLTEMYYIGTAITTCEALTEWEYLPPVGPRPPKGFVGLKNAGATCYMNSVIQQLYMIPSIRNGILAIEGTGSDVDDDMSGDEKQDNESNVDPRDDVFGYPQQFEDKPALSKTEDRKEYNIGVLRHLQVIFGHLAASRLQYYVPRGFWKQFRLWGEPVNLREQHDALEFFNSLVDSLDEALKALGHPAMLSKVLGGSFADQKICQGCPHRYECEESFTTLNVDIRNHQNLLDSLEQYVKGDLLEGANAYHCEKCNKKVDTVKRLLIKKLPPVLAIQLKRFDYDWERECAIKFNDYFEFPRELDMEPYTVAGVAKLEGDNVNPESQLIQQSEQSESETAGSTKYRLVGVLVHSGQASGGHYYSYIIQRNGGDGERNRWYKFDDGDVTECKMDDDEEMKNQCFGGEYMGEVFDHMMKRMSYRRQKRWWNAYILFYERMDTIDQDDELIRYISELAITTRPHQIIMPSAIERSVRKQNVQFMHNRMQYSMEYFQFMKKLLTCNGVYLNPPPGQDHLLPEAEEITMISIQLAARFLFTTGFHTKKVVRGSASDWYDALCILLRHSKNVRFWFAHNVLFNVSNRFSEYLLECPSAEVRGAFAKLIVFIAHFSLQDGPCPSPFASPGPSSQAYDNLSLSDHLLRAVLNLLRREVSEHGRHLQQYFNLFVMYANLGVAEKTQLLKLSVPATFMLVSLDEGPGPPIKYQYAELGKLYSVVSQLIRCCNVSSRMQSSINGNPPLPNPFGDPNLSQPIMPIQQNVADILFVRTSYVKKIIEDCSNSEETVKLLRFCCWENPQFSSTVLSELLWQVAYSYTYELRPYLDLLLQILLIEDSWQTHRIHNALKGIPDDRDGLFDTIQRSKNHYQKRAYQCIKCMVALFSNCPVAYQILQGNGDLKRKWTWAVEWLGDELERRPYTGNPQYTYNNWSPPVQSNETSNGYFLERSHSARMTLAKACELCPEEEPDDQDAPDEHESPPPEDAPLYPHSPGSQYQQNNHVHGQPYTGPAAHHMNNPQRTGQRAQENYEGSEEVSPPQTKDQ

[8] = target: T1, Ubiquitin carboxyl-terminal hydrolase 1/WD repeat-containing protein 48 (Homo sapiens); experiment: Inhibition of recombinant human 6His-tagged USP1-6His-tagged UAF1 complex using diubiquitin as a substrate assessed as inhibiting the cleavage of K63-linked di-Ub at 0 to 10 uM preincubated for 15 mins followed by substrate addition and measured after 2 hrs by SDS-PAGE analysis; type: protein-complex assay; conditions: dose 0-10 µM, time 135.0 min
[9] = target: T1, Ubiquitin carboxyl-terminal hydrolase 1/WD repeat-containing protein 48 (Homo sapiens); experiment: Inhibition of USP1/UAF1 in human MDA-MB-436 cells assessed as increase in Ub-PCNA level at 20 nM incubated for 24 hrs by Western blot analysis; type: cell-based
NCI-H1299 = experiment: Inhibition of colony formation in human NCI-H1299 cells at 0.5 uM measured after 7 days by SRB staining based assay relative to control; type: functional; conditions: NCI-H1299, 168 h, time 7 day

inhibition [1]: Dose-Dependent Effect
inhibition [2]: inactive
Cmax [3]: 4780 ng/mL
inhibition [4]: inactive
AUC(0-t) at 24 h [5]: 35800 ng·h/mL
inhibition [7]: inactive
inhibition [8]: Active
inhibition [9]: Active
SMILES: COc1ncnc(C2CC2)c1-c1ncc2ccc(=O)n(Cc3ccc(-c4nc(C(F)(F)F)cn4C(C)C)cc3)c2n1
inhibition at 0.1 µM [6]: 30%
inhibition at 0.5 µM (NCI-H1299): 70%
